# Assay results: US20140303127A1, “NEW CYCLOHEXYLAMINE DERIVATIVES HAVING BETA 2 ADRENERGIC AGONIST AND M3 MUSCARINIC ANTAGONIST ACTIVITIES” (ALMIRALL, S.A., priority 2011, published 2014)
# pIC50: −log10 of the molar value. Read-outs that look alike come from different tables or passages of the source.
# Experiments:
# [1] = molecular target: T1, human muscarinic M3 receptor (Homo sapiens, UniProt P20309); test: Human muscarinic M3 receptor binding assay ([3H]-NMS, CHO-K1 membranes)
# T1 construct: purchased Perkin Elmer; host or cells: CHO-K1 cells (membranes)
# Method: Test 2: Human Muscarinic M1, M2, M3, M4 and M5 Receptors Binding Assays
# The study of binding to human muscarinic M1, M2, M3, M4 and M5 receptors was performed using commercial membranes (Perkin Elmer) prepared from CHO-K1 cells. Radioligand binding experiments were conducted in 96 polypropylene well plates in a total volume of 200 μl. All reagents were dissolved in assay binding buffer (PBS with calcium and magnesium, SIGMA), except compounds that were dissolved in DMSO 100%. Non-specific binding (NSB) was measured in the presence of 1 μM atropine. [3H]-NMS was used as the radioligand at a concentration of 1 nM for M2, M3 and M5 and 0.3 nM for M1 and M4. [3H]-NMS and antagonists were incubated with membranes that express human muscarinic receptors M1, M2, M3, M4 and M5 at concentrations of 8.1, 10, 4.9, 4.5 and 4.9 μg/well, respectively. After an incubation period of two hours with gentle shaking, 150 μl of the reaction mix were transferred to 96 GF/C filter plates (Millipore), previously treated with wash buffer (Tris 50 mM; NaCl 100 mM; pH:7.4), containing 0.05% PEI (Sigma) during one hour. Bound and free [3H]-NMS were separated by rapid vacuum filtration in a manifold from Millipore and washed four times with ice cold wash buffer. After drying 30 min, 30 μl of OPTIPHASE Supermix were added to each well and radioactivity quantified using a Microbeta microplate scintillation counter.
# The affinity of each test compound to the receptors was determined by using ten different concentrations ran in duplicate. IC50s were calculated using Activity Base software from IDBS and the four parameters-log equation.
# [2] = molecular target: T2, human adrenergic beta2 receptor (Homo sapiens, UniProt P07550); test: Human adrenergic β2 receptor binding assay (3H-CGP12177, Sf9 membranes)
# T2 construct: purchased Perkin Elmer; host or cells: Sf9 cells (membranes)
# Method: Test 1: Human Adrenergic β1 and β2 Receptor Binding Assays
# The study of binding to human adrenergic beta1 and beta2 receptors was performed using commercial membranes prepared from Sf9 cells where they are overexpressed (Perkin Elmer). The membrane suspensions (16 μg/well for beta1 and 5 μg/well for beta2) in assay buffer (75 mM Tris/HCl with 12.5 mM MgCl2 and 2 mM EDTA pH=7.4) were incubated with 0.14 or 0.6 nM of 3H-CGP12177 (Amersham) for beta 1 and beta 2 receptors respectively in a final volume of 250 μl, in GFC Multiscreen 96 well plates (Millipore) previously treated with assay buffer containing 0.3% PEI (Sigma). Non specific binding was measured in the presence of 1 μM propanolol. Incubation was maintained for 60 minutes at room temperature and with gentle shaking. The binding reactions were terminated by filtration and washing with 2.5 volumes of Tris/HCl 50 mM pH=7.4. The affinity of each test compound to the receptor was determined by using ten different concentrations ran in duplicate. IC50s were calculated using Activity Base software from IDBS and the four parameters-log equation.
# [3] = membranes from CHO-K1 cells expressing human M3, 1 nM [3H]-NMS, read-out: Binding IC50, M3
# [4] = membranes from Sf9 cells overexpressing human beta2, 0.6 nM 3H-CGP12177, read-out: Binding IC50, β2
# T1 sequence (P20309 whole entry): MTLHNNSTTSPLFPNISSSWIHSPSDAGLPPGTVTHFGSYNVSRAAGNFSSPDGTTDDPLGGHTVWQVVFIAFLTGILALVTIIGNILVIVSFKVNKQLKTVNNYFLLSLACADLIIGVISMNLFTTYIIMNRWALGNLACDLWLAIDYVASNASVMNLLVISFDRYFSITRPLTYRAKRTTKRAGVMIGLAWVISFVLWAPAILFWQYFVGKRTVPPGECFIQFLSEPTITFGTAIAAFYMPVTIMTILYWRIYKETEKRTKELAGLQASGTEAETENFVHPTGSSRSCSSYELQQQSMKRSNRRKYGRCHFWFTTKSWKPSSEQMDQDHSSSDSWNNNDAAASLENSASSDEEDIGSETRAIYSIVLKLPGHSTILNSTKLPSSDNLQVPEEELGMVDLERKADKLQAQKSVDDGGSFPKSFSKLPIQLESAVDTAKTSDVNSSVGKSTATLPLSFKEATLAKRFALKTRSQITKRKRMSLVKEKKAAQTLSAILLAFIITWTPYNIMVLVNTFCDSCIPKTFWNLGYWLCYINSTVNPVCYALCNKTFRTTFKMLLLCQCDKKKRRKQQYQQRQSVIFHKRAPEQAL
Compound,"pIC50 [1, 3]","pIC50 [2, 4]",pIC50 [1],pIC50 [2]
"CN(CCCn1ccc2cc(CNC[C@H](O)c3ccc(O)c4[nH]c(=O)ccc34)ccc21)[C@H]1CC[C@H](OC(=O)C(O)(c2cccs2)c2cccs2)CC1 (relative stereo) [Example 4, trans-4-[{3-[5-({[(2R)-2-hydroxy-2-(8-hydroxy-2-oxo-1,2-dihydroquinolin-5-yl)ethyl]amino}methyl)-1H-indol-1-yl]propyl}(methyl)amino]cyclohexyl hydroxy(di-2-thienyl)acetate dihydrofluoride]",9.22,6.66,,
"CN(CCCc1nc(-c2ccc(CNC[C@H](O)c3ccc(O)c4[nH]c(=O)ccc34)cc2)no1)[C@H]1CC[C@H](OC(=O)C(O)(c2cccs2)c2cccs2)CC1 [Example 5, trans-4-[(3-{3-[4-({[(2R)-2-hydroxy-2-(8-hydroxy-2-oxo-1,2-dihydroquinolin-5-yl)ethyl]amino}methyl)phenyl]-1,2,4-oxadiazol-5-yl}propyl)(methyl)amino]cyclohexyl hydroxy(di-2-thienyl)acetate dihydrofluoride]",9.40,8.57,,
"CN(CCNC(=O)COc1ccc(CNC[C@H](O)c2ccc(O)c3[nH]c(=O)ccc23)cc1)[C@H]1CC[C@H](OC(=O)C(O)(c2cccs2)c2cccs2)CC1 (relative stereo) [Example 8, trans-4-[[2-({[4-({[(2R)-2-hydroxy-2-(8-hydroxy-2-oxo-1,2-dihydroquinolin-5-yl)ethyl]amino}methyl)phenoxy]acetyl}amino)ethyl](methyl)amino]cyclohexyl hydroxy(di-2-thienyl)acetate dihydrofluoride]",8.66,7.74,,
"CN(CCCn1c(=O)sc2cc(CNC[C@H](O)c3ccc(O)c4[nH]c(=O)ccc34)ccc21)[C@H]1CC[C@H](OC(=O)C(O)(c2cccs2)c2cccs2)CC1 [Example 11, trans-4-[{3-[6-({[(2R)-2-hydroxy-2-(8-hydroxy-2-oxo-1,2-dihydroquinolin-5-yl)ethyl]amino}methyl)-2-oxo-1,3-benzothiazol-3(2H)-yl]propyl}(methyl)amino]cyclohexyl hydroxy(di-2-thienyl)acetate dihydrofluoride]",9.30,8.38,,
"CN(CCN(C)[C@H]1CC[C@H](OC(=O)C(O)(c2cccs2)c2cccs2)CC1)C(=O)COc1ccc(CNC[C@H](O)c2ccc(O)c3[nH]c(=O)ccc23)cc1 [Example 6, trans-4-[{2-[{[4-({[(2R)-2-hydroxy-2-(8-hydroxy-2-oxo-1,2-dihydroquinolin-5-yl)ethyl]amino}methyl)phenoxy]acetyl}(methyl)amino]ethyl}(methyl)amino]cycloh exyl hydroxy(di-2-thienyl)acetate dihydrofluoride]",8.85,7.47,,
"CN(CCCn1nnc2cc(CNC[C@H](O)c3ccc(O)c4[nH]c(=O)ccc34)ccc21)[C@H]1CC[C@H](OC(=O)[C@](O)(c2cccs2)C2CCCC2)CC1 [Example 17, trans-4-[{3-[5-({[(2R)-2-hydroxy-2-(8-hydroxy-2-oxo-1,2-dihydroquinolin-5-yl)ethyl]amino}methyl)-1H-1,2,3-benzotriazol-1-yl]propyl}(methyl)amino]cyclohexyl (2S)-cyclopentyl(hydroxy)-2-thienylacetate dihydrofluoride]",9.22,7.89,,
"COc1cc(OCC(=O)N(C)CCN(C)[C@H]2CC[C@H](OC(=O)C(O)(c3cccs3)c3cccs3)CC2)c(Cl)cc1CNC[C@H](O)c1ccc(O)c2[nH]c(=O)ccc12 [Example 10, trans-4-[{2-[{[2-chloro-4-({[(2R)-2-hydroxy-2-(8-hydroxy-2-oxo-1,2-dihydroquinolin-5-yl)ethyl]amino}methyl)-5-methoxyphenoxy]acetyl}(methyl)amino]ethyl}(methyl)amino]cyclohexyl hydroxy(di-2-thienyl)acetate dihydrofluoride]",,,9.40,8.24
"CN(CCCn1c(=O)oc2cc(CNC[C@H](O)c3ccc(O)c4[nH]c(=O)ccc34)ccc21)[C@H]1CC[C@H](OC(=O)C2(C)c3ccccc3Oc3ccccc32)CC1 [Example 15, trans-4-[{3-[6-({[(2R)-2-hydroxy-2-(8-hydroxy-2-oxo-1,2-dihydroquinolin-5-yl)ethyl]amino}methyl)-2-oxo-1,3-benzoxazol-3(2H)-yl]propyl}(methyl)amino]cyclohexyl 9-methyl-9H-xanthene-9-carboxylate dihydrofluoride]",9.00,8.82,,
"trans-4-[{3-[5-({[(2R)-2-hydroxy-2-(5-hydroxy-3-oxo-3,4-dihydro-2H-1,4-benzoxazin-8-yl)ethyl]amino}methyl)-1H-1,2,3-benzotriazol-1-yl]propyl}(methyl)amino]cyclohexyl (2S)-cyclopentyl(hydroxy)-2-thienylacetate dihydrofluoride [Example 18]",9.40,,,
"COc1cc(-c2noc(CCCN(C)[C@H]3CC[C@H](OC(=O)C(O)(c4cccs4)c4cccs4)CC3)n2)c(Cl)cc1CNC[C@H](O)c1ccc(O)c2[nH]c(=O)ccc12 [Example 9, trans-4-[(3-{3-[2-chloro-4-({[(2R)-2-hydroxy-2-(8-hydroxy-2-oxo-1,2-dihydroquinolin-5-yl)ethyl]amino}methyl)-5-methoxyphenyl]-1,2,4-oxadiazol-5-yl}propyl)(methyl)amino]cyclohexyl hydroxy(di-2-thienyl)acetate dihydrofluoride]",,,9.70,8.66
"trans-4-[{3-[6-(2-{[(2R)-2-hydroxy-2-(8-hydroxy-2-oxo-1,2-dihydroquinolin-5-yl)ethyl]amino}ethyl)-2-oxo-1,3-benzoxazol-3(2H)-yl]propyl}(methyl)amino]cyclohexyl hydroxy(di-2-thienyl)acetate dihydrofluoride [Example 19]",9.10,7.21,,
"trans-4-{[2-({2-[4-(2-{[(2R)-2-hydroxy-2-(8-hydroxy-2-oxo-1,2-dihydroquinolin-5-yl)ethyl]amino}propyl)phenoxy]acetyl}amino)ethyl]amino}cyclohexyl hydroxy(di-2-thienyl)acetate dihydrofluoride [Example 20]",8.44,8.51,,
"CN(CCCn1c(=O)oc2cc(CNC[C@H](O)c3ccc(O)c4[nH]c(=O)ccc34)ccc21)[C@H]1CC[C@H](OC(=O)C(O)(c2cccs2)c2cccs2)CC1 [Example 1, trans-4-[{3-[6-({[(2R)-2-hydroxy-2-(8-hydroxy-2-oxo-1,2-dihydroquinolin-5-yl)ethyl]amino}methyl)-2-oxo-1,3-benzoxazol-3(2H)-yl]propyl}(methyl)amino]cyclohexyl hydroxy(di-2-thienyl)acetate, dihydrofluoride]",9.52,6.85,,
"CN(CCCn1c(=O)[nH]c2cc(CNC[C@H](O)c3ccc(O)c4[nH]c(=O)ccc34)ccc21)[C@H]1CC[C@H](OC(=O)C(O)(c2cccs2)c2cccs2)CC1 [Example 2, trans-4-[{3-[5-({[(2R)-2-hydroxy-2-(8-hydroxy-2-oxo-1,2-dihydroquinolin-5-yl)ethyl]amino}methyl)-2-oxo-2,3-dihydro-1H-benzimidazol-1-yl]propyl}(methyl)amino]cyclohexyl hydroxy(di-2-thienyl)acetate dihydrofluoride]",,,9.40,6.92
